Laboratory results as given in ChEMBL document CHEMBL5653631, “A Potent and Selective ULK1 Inhibitor Suppresses Autophagy and Sensitizes Cancer Cells to Nutrient Stress” (iScience, 2018).
Blank lines part the entries; values can stand above or below the compound they belong to.

Assays:
[1] = molecular target: Rho-associated protein kinase 1 (Homo sapiens) (UniProt Q13464); assay: Inhibition of human recombinant ROCK1 at 500 nM in presence of ATP by radiometric assay relative to control
[2] = molecular target: T1, Dual specificity mitogen-activated protein kinase kinase 6 (Homo sapiens) (UniProt P52564); assay: Inhibition of human recombinant MAP2K6 at 500 nM related to control ULK1
T1 sequence (whole entry): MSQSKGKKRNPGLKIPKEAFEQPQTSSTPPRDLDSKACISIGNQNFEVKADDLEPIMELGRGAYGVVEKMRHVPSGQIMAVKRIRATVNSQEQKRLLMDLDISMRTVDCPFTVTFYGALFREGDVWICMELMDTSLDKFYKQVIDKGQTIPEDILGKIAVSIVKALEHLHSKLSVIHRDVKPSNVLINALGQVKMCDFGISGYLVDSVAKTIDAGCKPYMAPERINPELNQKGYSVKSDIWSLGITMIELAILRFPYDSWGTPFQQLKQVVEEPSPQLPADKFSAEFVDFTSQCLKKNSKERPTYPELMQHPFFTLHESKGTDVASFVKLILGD

[3] = molecular target: Serine/threonine-protein kinase PAK 3 (Homo sapiens) (UniProt O75914); assay: Inhibition of human recombinant PAK3 at 500 nM related to control ULK1
[4] = molecular target: Dual specificity mitogen-activated protein kinase kinase 2 (Homo sapiens) (UniProt P36507); assay: Inhibition of human recombinant MAP2K2 at 15 nM related to control ULK1
[5] = molecular target: Protein kinase C iota type (Homo sapiens) (UniProt P41743); assay: Inhibition of human recombinant PKCi at 15 nM related to control ULK1
[6] = molecular target: T2, Mitogen-activated protein kinase kinase kinase 5 (Homo sapiens) (UniProt Q99683); assay: Inhibition of human recombinant MAP3K5 at 15 nM in presence of ATP by radiometric assay relative to control
T2 sequence (whole entry): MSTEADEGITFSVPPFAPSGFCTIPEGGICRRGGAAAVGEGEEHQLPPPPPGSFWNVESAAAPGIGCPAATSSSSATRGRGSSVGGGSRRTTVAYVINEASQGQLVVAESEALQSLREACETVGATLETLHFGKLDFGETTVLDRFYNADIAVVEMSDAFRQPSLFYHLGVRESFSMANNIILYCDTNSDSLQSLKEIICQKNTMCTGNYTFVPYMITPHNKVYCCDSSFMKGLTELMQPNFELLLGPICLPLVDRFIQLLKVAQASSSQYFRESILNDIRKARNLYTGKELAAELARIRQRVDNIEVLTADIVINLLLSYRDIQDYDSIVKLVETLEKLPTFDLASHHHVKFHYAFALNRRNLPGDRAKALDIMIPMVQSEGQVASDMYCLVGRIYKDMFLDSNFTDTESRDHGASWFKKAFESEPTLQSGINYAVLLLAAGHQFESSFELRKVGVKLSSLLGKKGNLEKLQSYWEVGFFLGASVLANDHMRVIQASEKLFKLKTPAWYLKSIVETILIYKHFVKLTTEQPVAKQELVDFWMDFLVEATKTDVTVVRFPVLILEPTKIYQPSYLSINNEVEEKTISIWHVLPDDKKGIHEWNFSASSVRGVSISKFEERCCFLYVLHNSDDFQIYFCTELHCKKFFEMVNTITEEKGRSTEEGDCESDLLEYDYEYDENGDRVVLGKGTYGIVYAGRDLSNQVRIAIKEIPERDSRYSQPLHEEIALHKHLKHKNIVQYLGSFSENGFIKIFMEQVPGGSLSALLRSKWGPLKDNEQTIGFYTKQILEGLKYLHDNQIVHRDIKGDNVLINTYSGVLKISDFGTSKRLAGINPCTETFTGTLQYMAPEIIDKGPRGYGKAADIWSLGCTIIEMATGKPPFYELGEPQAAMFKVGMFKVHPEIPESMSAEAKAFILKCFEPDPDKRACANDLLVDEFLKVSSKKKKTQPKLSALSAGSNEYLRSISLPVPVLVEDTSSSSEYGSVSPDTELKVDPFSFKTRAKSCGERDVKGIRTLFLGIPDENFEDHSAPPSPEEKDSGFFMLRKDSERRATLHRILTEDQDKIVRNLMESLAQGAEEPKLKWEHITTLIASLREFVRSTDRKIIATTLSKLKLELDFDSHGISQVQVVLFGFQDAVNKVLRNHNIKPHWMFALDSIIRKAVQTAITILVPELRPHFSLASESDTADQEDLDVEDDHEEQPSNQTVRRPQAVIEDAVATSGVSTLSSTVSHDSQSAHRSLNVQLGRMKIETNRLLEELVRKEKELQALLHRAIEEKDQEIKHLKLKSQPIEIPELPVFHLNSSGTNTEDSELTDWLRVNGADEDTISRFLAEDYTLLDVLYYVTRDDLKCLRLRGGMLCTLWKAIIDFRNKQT

[7] = molecular target: T3, Aurora kinase C (Homo sapiens) (UniProt Q9UQB9); assay: Inhibition of human recombinant AurC at 15 nM related to control ULK1
T3 sequence (whole entry): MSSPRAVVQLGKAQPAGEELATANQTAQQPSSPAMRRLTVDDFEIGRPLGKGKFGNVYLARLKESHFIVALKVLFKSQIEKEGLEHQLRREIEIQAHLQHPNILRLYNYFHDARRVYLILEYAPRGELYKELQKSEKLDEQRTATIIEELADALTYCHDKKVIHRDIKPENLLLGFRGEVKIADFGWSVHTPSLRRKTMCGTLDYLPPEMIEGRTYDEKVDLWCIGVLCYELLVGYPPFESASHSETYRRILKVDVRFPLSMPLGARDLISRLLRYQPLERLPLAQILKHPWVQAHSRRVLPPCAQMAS

[8] = molecular target: Mitogen-activated protein kinase kinase kinase kinase 1 (Homo sapiens) (UniProt Q92918); assay: Inhibition of human recombinant HPK1 at 15 nM in presence of ATP by radiometric assay relative to control
[9] = molecular target: STE20-like serine/threonine-protein kinase (Homo sapiens) (UniProt Q9H2G2); assay: Inhibition of human recombinant SLK at 15 nM in presence of ATP by radiometric assay relative to control
[10] = molecular target: Protein kinase C gamma type (Homo sapiens) (UniProt P05129); assay: Inhibition of human recombinant PKCg at 40 nM related to control ULK1

STE20-like serine/threonine-protein kinase (Homo sapiens), sequence (Q9H2G2 whole entry, looked up): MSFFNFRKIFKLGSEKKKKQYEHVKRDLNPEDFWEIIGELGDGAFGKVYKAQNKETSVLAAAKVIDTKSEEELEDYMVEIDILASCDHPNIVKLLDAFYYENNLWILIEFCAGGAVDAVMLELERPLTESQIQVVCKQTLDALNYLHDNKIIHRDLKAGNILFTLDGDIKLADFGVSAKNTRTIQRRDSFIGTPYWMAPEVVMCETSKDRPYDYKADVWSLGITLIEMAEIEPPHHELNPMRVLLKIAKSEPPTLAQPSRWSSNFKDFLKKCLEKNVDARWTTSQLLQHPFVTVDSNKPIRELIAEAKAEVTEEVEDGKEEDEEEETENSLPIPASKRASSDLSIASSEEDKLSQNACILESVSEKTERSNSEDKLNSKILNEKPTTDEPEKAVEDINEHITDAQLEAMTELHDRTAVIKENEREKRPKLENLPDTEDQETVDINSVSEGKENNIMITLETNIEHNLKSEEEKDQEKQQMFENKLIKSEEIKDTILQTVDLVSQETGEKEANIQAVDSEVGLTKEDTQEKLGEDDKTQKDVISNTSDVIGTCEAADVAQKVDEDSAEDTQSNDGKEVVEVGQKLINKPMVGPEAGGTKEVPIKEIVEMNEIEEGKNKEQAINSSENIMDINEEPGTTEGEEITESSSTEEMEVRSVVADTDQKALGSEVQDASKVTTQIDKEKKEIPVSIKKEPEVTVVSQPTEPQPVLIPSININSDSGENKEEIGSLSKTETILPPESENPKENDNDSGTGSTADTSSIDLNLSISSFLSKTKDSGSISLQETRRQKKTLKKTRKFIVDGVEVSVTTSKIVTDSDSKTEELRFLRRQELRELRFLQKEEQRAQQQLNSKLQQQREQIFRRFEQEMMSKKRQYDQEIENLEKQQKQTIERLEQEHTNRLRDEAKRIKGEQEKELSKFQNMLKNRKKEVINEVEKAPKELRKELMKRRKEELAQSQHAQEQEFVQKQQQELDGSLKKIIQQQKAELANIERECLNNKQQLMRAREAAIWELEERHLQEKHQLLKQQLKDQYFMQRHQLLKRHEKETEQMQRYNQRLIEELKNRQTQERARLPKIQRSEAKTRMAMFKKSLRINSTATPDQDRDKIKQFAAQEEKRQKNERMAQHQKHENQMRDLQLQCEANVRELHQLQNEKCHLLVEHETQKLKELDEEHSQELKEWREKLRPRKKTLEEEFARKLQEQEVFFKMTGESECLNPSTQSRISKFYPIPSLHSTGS
Protein kinase C iota type (Homo sapiens), sequence (P41743 whole entry, looked up): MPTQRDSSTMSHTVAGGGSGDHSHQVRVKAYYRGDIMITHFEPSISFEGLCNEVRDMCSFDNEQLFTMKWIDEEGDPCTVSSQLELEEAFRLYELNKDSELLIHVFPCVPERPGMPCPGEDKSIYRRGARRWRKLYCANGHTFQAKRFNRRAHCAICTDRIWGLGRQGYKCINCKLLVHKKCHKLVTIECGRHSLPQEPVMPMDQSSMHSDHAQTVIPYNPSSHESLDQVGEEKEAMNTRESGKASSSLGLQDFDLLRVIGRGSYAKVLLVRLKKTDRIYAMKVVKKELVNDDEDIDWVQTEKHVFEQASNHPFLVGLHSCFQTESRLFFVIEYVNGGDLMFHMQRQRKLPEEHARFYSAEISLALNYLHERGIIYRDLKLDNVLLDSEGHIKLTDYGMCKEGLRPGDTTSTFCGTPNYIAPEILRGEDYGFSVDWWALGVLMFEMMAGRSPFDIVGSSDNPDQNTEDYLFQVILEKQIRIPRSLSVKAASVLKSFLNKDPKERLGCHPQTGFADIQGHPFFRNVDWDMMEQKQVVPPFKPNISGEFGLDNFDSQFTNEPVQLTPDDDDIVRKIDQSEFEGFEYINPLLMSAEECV
Serine/threonine-protein kinase PAK 3 (Homo sapiens), sequence (O75914 whole entry, looked up): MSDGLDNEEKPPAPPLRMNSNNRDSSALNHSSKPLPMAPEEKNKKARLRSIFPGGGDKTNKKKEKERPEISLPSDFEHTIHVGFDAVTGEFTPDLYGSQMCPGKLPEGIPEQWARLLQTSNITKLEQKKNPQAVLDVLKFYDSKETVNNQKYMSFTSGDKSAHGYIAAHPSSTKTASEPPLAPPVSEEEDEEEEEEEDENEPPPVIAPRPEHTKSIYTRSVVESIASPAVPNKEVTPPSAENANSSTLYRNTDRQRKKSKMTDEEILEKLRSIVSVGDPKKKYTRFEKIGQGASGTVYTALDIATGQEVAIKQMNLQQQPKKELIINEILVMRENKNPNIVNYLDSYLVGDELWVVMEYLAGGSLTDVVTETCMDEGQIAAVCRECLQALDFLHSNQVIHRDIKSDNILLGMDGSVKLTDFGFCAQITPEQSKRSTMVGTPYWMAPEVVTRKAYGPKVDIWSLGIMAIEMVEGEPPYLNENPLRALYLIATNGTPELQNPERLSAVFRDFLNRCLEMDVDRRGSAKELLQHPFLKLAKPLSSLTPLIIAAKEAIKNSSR
Mitogen-activated protein kinase kinase kinase kinase 1 (Homo sapiens), sequence (Q92918 whole entry, looked up): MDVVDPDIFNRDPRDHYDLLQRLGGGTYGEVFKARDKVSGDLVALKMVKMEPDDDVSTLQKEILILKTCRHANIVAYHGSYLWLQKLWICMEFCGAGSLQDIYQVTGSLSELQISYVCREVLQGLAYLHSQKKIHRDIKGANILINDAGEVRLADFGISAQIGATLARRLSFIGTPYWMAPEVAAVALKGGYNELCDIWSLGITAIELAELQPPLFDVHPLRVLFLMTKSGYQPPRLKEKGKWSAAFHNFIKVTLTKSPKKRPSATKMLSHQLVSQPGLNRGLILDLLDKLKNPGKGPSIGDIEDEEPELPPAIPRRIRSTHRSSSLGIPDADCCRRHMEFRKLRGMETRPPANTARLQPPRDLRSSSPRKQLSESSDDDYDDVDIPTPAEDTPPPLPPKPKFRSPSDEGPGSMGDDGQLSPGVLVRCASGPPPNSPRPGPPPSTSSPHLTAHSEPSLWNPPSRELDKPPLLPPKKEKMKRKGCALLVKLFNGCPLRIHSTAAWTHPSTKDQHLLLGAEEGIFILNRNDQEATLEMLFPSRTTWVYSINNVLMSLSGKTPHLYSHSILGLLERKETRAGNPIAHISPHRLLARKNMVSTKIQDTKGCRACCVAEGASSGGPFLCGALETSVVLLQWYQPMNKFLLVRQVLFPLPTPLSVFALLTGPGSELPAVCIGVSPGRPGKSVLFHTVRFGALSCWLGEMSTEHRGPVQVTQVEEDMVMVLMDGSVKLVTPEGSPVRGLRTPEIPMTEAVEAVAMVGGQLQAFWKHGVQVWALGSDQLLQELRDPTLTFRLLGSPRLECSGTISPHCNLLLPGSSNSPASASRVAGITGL
Dual specificity mitogen-activated protein kinase kinase 2 (Homo sapiens), sequence (P36507 whole entry): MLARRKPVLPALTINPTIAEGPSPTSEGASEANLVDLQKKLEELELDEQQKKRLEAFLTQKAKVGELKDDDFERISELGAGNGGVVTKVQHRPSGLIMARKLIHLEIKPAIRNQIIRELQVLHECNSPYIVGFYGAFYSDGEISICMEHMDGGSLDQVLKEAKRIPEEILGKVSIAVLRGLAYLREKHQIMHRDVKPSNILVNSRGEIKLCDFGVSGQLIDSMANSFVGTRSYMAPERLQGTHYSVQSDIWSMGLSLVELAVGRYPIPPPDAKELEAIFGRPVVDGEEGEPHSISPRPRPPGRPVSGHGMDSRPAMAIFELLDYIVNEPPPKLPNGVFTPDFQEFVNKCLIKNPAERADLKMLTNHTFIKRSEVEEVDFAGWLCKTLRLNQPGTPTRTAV

inhibition [1]: 0%
fold change (FC) [2]: 0.07
fold change (FC) [3]: 0.12
SMILES: CNC(=O)c1ccccc1Oc1nc(Nc2cc(OC)c(OC)c(OC)c2)ncc1Br

fold change (FC) [4]: 0
fold change (FC) [5]: 0.05
inhibition [6]: 0%
fold change (FC) [7]: 0.09
inhibition [8]: 0%
inhibition [9]: 22%
SMILES: CC(C)[C@H](NC(=O)c1cc(-c2cnn3cc(-c4ccc(OCCN5CCCCC5)cc4)cnc23)cs1)C(F)(F)F

fold change (FC) [10]: 0
SMILES: O=C(N[C@@H](C1CC1)C(F)(F)F)c1cc(-c2cnn3cc(-c4ccc(F)cc4)cnc23)cs1
